Data taken from patent US9339503B2, “Tetrahydro-quinazolinone derivatives as TANK and PARP inhibitors” (MERCK PATENT GMBH, priority 2012, dated 2016).

Tests used:
[1] = target: T1, GST-tagged Tnks-1 (1023-1327 aa) (Homo sapiens, UniProt O95271); assay: TNKS 1 activity ELISA (autoparsylation assay); format: biochemical; conditions: read-out: IC50 tankyrase 1 (ELISA assay)
T1 construct: GST-tagged Tnks-1 (1023-1327 aa, prepared in-house); made in house
Experimental: Biochemical Activity Testing of TNKS 1 and 2: Activity ELISA (Autoparsylation Assay)
For analysis of autoparsylation activity of TNKS 1 and 2 an activity ELISA was performed: In the first step GST tagged TNKS was captured on a Glutathione coated plate. Then the activity assay with biotinylated NAD was performed in the absence/presence of the compounds. During the enzymatic reaction GST tagged TNKS transferred biotinylated ADP-ribose to itself from biotinylated NAD as co-substrate. For the detection streptavidin-HRP conjugate was added that bound to the biotinylated TNKS and was thereby captured to the plates. The amount of biotinylated resp autoparsylated TNKS was detected with a luminescence substrate for HRP. The level of the luminescence signal correlated directly with the amount of autoparsylated TNKS and therefore with activity of TNKS.
The activity ELISA was performed in 384 well Glutathione coated microtiter plates (Express capture Glutathione coated plate, Biocat, Heidelberg, Germany). The plates were pre-equilibrated with PBS. Then the plates were incubated with 50 μl 20 ng/well GST-tagged Tnks-1 (1023-1327 aa, prepared in-house), respectively GST-tagged Tnks-2 (873-1166 aa, prepared in-house) in assay buffer (50 mM HEPES, 4 mM Mg-chloride, 0.05% Pluronic F-68, 2 mM DTT, pH 7.7) overnight at 4° C. The plates were washed 3 times with PBS-Tween-20. The wells were blocked by incubation at room temperature for 20 minutes with 50 μl blocking buffer (PBS, 0.05% Tween-20, 0.5% BSA). Afterwards the plates were washed 3 times with PBS-Tween-20. The enzymatic reaction was performed in 50 μl reaction solution (50 mM HEPES, 4 mM Mg-chloride, 0.05% Pluronic F-68, 1.4 mM DTT, 0.5% DMSO, pH 7.7) with 10 μM bio-NAD (Biolog, Life science Inst., Bremen, Germany) as co-substrate in the absence or presence of the test compound (10 dilution concentrations) for 1 hour at 30° C. The reaction was stopped by 3 times washing with PBS-Tween-20. For the detection 50 μl of 20 ng/μl Streptavidin, HRP conjugate (MoBiTec, Göttingen, Germany) in PBS/0.05% Tween-20/0.01% BSA were added and the plates were incubated for 30 minutes at room temperature. After three times washing with PBS-Tween-20 50 μl of SuperSignal ELISA Femto Maximum sensitivity substrate solution (ThermoFisherScientific (Pierce), Bonn, Germany) were added. Following a 1 minute incubation at room temperature luminescence signals were measured with an Envision multimode reader (Perkin Elmer LAS Germany GmbH) at 700 nm. The full value used was the inhibitor-free reaction. The pharmacological zero value used was XAV-939 (Tocris) in a final concentration of 5 μM. The inhibitory values (IC50) were determined using either the program Symyx Assay Explorer® or Condosseo® from GeneData.

His-tagged Parp-1 = target: T2, His-tagged Parp-1 (Homo sapiens, UniProt P09874); assay: PARP-1 autoparsylation assay (HTRF); format: biochemical; conditions: read-out: IC50 PARP1
T2 construct: purchased Enzo Life Sciences GmbH, Lörrach, Germany
T2 sequence (P09874 whole entry): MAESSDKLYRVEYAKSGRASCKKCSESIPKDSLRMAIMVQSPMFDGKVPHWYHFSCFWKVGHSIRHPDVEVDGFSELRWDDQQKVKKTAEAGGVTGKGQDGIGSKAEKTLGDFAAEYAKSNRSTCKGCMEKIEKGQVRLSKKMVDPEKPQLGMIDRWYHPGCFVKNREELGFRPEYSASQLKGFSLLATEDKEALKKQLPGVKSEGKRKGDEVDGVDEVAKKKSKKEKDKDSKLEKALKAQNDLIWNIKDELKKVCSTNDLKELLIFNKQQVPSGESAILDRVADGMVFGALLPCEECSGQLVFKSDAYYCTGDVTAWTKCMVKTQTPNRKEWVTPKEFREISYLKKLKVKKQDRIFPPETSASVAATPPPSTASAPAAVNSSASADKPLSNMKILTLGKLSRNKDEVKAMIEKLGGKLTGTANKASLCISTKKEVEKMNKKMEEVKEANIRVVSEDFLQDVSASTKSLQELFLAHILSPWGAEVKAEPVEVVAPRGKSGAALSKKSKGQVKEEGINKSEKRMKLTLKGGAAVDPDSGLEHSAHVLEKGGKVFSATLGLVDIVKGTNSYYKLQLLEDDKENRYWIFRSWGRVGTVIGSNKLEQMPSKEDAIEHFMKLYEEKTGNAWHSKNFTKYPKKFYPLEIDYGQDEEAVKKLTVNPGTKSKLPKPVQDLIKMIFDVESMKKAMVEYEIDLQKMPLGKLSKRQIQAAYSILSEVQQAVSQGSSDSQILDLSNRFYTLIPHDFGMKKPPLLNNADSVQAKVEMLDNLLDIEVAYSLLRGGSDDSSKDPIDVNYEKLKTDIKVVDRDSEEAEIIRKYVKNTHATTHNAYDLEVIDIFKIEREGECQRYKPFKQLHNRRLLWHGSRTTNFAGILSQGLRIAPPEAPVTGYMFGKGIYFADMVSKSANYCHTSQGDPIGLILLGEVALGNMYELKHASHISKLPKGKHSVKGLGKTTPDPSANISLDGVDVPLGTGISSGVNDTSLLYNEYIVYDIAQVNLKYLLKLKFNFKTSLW
Experimental: Biochemical Activity Testing of PARP-1: Autoparsylation Assay
The autoparsylation assay was run in two steps: the enzymatic reaction in which His-tagged Parp-1 transferred biotinylated ADP-ribose/ADP-ribose to itself from biotinylated NAD/NAD as co-substrate and the detection reaction where a time resolved FRET between cryptate labelled anti-His antibody bound to the His tag of the enzyme and Xlent® labelled-streptavidin bound the biotin-parsylation residue was analysed. The autoparsylation activity was detectable directly via the increase in HTRF signal.
The autoparsylation assay was performed as 384-well HTRF® (Cisbio, Codolet, France) assay format in Greiner low volume nb 384-well microtiter plates. 35 nM His-tagged Parp-1 (human, recombinant, Enzo Life Sciences GmbH, Lörrach, Germany) and a mixture of 125 nM bio-NAD (Biolog, Life science Inst., Bremen, Germany) and 800 nM NAD as co-substrate were incubated in a total volume of 6 μl (100 mM Tris/HCl, 4 mM Mg-chloride, 0.01% IGEPAL® CA630, 1 mM DTT, 0.5% DMSO, pH 8, 13 ng/μl activated DNA (BPS Bioscience, San Diego, US)) in the absence or presence of the test compound (10 dilution concentrations) for 150 min at 23° C. The reaction was stopped by the addition of 4 μl of the Stop/detection solution (70 nM SA-Xlent® (Cisbio, Codolet, France), 2.5 nM Anti-His-K® (Eu-labelled anti-His, Cisbio, Codolet, France) in 50 mM HEPES, 400 mM KF, 0.1% BSA, 20 mM EDTA, pH 7.0). After 1 h incubation at room temperature the HTRF was measured with an Envision multimode reader (Perkin Elmer LAS Germany GmbH) at excitation wavelength 340 nm (laser mode) and emission wavelengths 615 nm and 665 nm. The ratio of the emission signals was determined. The full value used was the inhibitor-free reaction. The pharmacological zero value used was Olaparib (LClabs, Woburn, US) in a final concentration of 1 μM. The inhibitory values (IC50) were determined using either the program Symyx Assay Explorer® or Condosseo® from GeneData.

T1 sequence (O95271 1023-1327): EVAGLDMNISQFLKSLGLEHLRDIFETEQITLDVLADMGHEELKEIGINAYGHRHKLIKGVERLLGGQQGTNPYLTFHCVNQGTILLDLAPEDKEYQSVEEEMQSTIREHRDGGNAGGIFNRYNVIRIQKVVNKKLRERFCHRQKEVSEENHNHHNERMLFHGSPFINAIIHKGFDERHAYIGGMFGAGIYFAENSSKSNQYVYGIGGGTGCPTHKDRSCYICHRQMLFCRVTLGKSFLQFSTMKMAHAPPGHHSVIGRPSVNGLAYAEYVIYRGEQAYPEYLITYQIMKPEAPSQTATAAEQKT

Row | Compound | IC50 [1] | IC50 (His-tagged Parp-1)
1 | COc1ccc(N2CCN(c3nc4c(c(=O)[nH]3)CCCC4)CC2)cc1 [Compound A3, 2-[4-(4-methoxy-phenyl)-piperazin-1-yl]-5,6,7,8-tetrahydro-3H-quinazolin-4-one] | < 300 nM | < 300 nM
2 | O=c1[nH]c(N2CCN(c3ccc(F)cc3)CC2)nc2c1CCCC2 [Compound A6, 2-[4-(4-Fluorophenyl)piperazin-1-yl]-5,6,7,8-tetrahydro-3H-quinazolin-4-one] | < 300 nM | 300 to 3000 nM
3 | COc1cccc(N2CCN(c3nc4c(c(=O)[nH]3)CCCC4)CC2)c1 [Compound A7, 2-[4-(3-Methoxyphenyl)piperazin-1-yl]-5,6,7,8-tetrahydro-3H-quinazolin-4-one] | < 300 nM | 300 to 3000 nM
4 | O=c1[nH]c(N2CCN(c3ccccc3Cl)CC2)nc2c1CCCC2 [Compound A9, 2-[4-(2-Chlorophenyl)piperazin-1-yl]-5,6,7,8-tetrahydro-3H-quinazolin-4-one] | < 300 nM | 300 to 3000 nM
5 | COc1ccccc1N1CCN(c2nc3c(c(=O)[nH]2)CCCC3)CC1 [Compound A12, 2-[4-(2-Methoxyphenyl)piperazin-1-yl]-5,6,7,8-tetrahydro-3H-quinazolin-4-one] | < 300 nM | 300 to 3000 nM
6 | N#Cc1ccccc1N1CCN(c2nc3c(c(=O)[nH]2)CCCC3)CC1 [Compound A33, 2-[4-(4-oxo-5,6,7,8-tetrahydro-3H-quinazolin-2-yl)piperazin-1-yl]benzonitrile] | < 300 nM | 300 to 3000 nM
7 | COc1cc(F)ccc1N1CCN(c2nc3c(c(=O)[nH]2)CCCC3)CC1 [Compound A36, 2-[4-(4-fluoro-2-methoxy-phenyl)piperazin-1-yl]-5,6,7,8-tetrahydro-3H-quinazolin-4-one] | < 300 nM | 300 to 3000 nM
